# Experimental data as given in US10561736B1, “Apoptosis inhibitor formulations for prevention of hearing loss” (Spiral Therapeutics, Inc., priority 2019, dated 2020).
# Entries after “also recorded” stand apart in the source; their conditions may differ. Like-named read-outs stand apart in the source and are kept apart here.
# Assays:
# HEI-OC1 cells [1] = details: cellular model of CisPt-induced apoptosis; IEB Symposium abstracts 2016; cited from earlier work
# [2] = cochlear distribution after IT administration (absorption); format: in vivo; details: rat; for concentration at 24 h: cochlea (cochlear homogenate), other: intratympanic (IT), read-out: mean cochlear LPT99 concentration; for peak mean cochlear LPT99 concentration: 1 hour
# Description: Cochleae were harvested and rinsed at several timepoints after intratympanic injection of drug product. Drug concentration (y axis) in cochlear homogenates is expressed as nanograms LPT99 per gram of cochlear homogenate. • (i) Absorption
# LPT99 cochlear distribution after IT administration was studied in rats. […] LPT99 concentration was quantified with an ultra-performance liquid chromatography tandem mass spectrometry (UPLC-ESI/MS/MS) system.
# [3] = as above; format: in vivo, rat; details: LPT99 formulation in hydrogel, detection limit 2 ng/mL=3.2 nM
# HEI-OC1 cells [4] = assay: HEI-OC1 cell viability with CisPt; format: cell-based; details: cellular model of CisPt-induced apoptosis
# Protocol: To identify off-target activities of LPT99, its selectivity against a panel of receptors (44 G-protein-coupled receptors [GPCR] and 4 non-GPCR), 4 ion channels, and 3 transporters were analyzed. The cell line, HEI-OC1 (house ear institute organ of Corti 1), which expresses several characteristic markers of the organ of Corti sensory cells (Kalinec, et al., Audiol. Neurootol. 2003, 8(4), 177-89), was used to evaluate the efficacy of LPT99 in preventing apoptosis due to […]. Cells were pre-incubated with LPT99, followed by […] for 24 hours.
# (§1) The effect of LPT99 on proliferation of non-apoptotic cells was studied. A549 cells were cultured in the presence of LPT99 for up to 6 days; the cell number was monitored by flow cytometry, and doubling time was calculated.
# [5] = system: Chinese hamster ovary (CHO) cell; assay: in vitro CHO cell aberration assay; format: cell-based; details: presence or absence of S9 metabolism
# [6] = in vitro release assay from P407 hydrogel through dialysis membrane into artificial perilymph; format: physicochemical; details: 3500 Da dialysis membrane, 37° C.
# Protocol: The in vitro release assay was performed using cellulose dialysis membranes of 3500 Da (OrDial D35-MWCO 3500, Orange Scientific) to simulate the round window membrane, located between the middle ear and the inner ear, as it is the first barrier for the drug to reach the inner ear where it will exert its pharmacological action. (See FIG. 1) Artificial perilymph (NaCl 137 mM, KCl 5 mM, CaCl2 2 mM, MgCl2 1 mM and NaHCO3 1 mM) was used to simulate the environment inside the inner ear, since this is the liquid that interact with the drug after crossing the round window. The assay was performed at 37° C., continuing with the simulation of ear conditions.
# To prepare the release assay, ten (10) mL of the LPT99 loaded hydrogel was placed inside a 3500 Da dialysis membrane, the membrane with the hydrogel was introduced into a 100 ml borosilicate glass lab bottle and 30 ml of artificial perilymph was added. All samples were kept under magnetic stirring at 37° C. […]
# Samples were taken at different time points (1 h, 3 h, 6 h, 1 day, 2 days, 3 days, 6 days, 7 days, 8 days, 9 days, 10 days, 13 days, 14 days and 15 days) at which time 5 mL were withdrawn with a graduated glass pipette and replaced with equivalent volume of artificial perilymph. The collected samples were analyzed to determine the amount of drug released from the hydrogel at each time point. […]
# [7] = system: ion channels, including hERG potassium channels; assay: effects on ion channels in CHO and HEK 293 cells; format: cell-based
# Description: Torsadogenic refers to the development of torsade de Pointes (TdP) arrythimias.
# [8] = distribution in cochlea and plasma after a single IT administration; format: in vivo; details: rat
# Protocol: Distribution of LPT99 was investigated in cochlea and plasma after a single IT administration in rats. The inhibitor was administered at 50, 100, or 200 μM (dissolved in 5% hydroxypropyl cyclodextrin in physiological serum).
# HEI-OC1 cells [9] = assay: release of mitochondrial Cytc in HEI-OC1 cells with CisPt (flow cytometry); format: cell-based; details: cellular model of CisPt-induced apoptosis
# Protocol: Flow cytometry was also used to characterize the effect of LPT99 in the release of mitochondrial Cytc in HEI-OC1 cells in vitro with CisPt prevention.
# as §1
# [10] = worst-case human plasma concentration estimate; details: assumed maximum clinical dose 200 μg, human plasma volume 2400 mL
# Protocol: These bioavailability values are similar to those described for other drugs formulated in POLOXAMER® gels and administered IT (Honeder, et al., Audiol. Neurootol. 2014, 19(3), 193-202; Wang, et al., Audiol. Neurootol. 2011, 16(4), 233-41; Yang, et al., Sci. Transl. Med. 2016, 8(356), 356ra120). Assuming a maximum clinical dose of 200 μg LPT99 and an average human plasma volume of 2400 mL (for an average 60-kg individual [typical blood plasma volume in males is ˜39 mL/kg of body weight, and in females ˜40 mL/kg]).
# [11] = plasma concentrations after IT administration of LPT99-CD; format: in vivo, rat
# Protocol: In a study conducted in female Wistar rats, plasma concentrations of LPT99 were evaluated at 1 hour and 2, 4, 7, and 14 days after IT administration of a single 50 μL dose of 50, 100, or 200 μM LPT99 formulated in a 5% HPβ-cyclodextrin (“CD”) vehicle (LPT99-CD).
smiles,measurement,setting,value
"COc1ccc2[nH]cc(CCNC(=O)CC3C(=O)N(CCc4ccc(Cl)cc4Cl)CC(=O)N3CCc3cccs3)c2c1 (stereo not drawn) [LPT99, 2-(4-(2,4-dichlorophenethyl)-3,6-dioxo-1-(2-(thiophen-2-yl)ethyl)piperazin-2-yl)-N-(2-(5-methoxy-1H-indol-3-yl)ethyl)acetamide]",release of Cytc from mitochondria,HEI-OC1 cells [1],decreased release of Cytc from mitochondria
same,concentration at 24 h,[2]; IT 50 μM,1.8 ng/g
same,concentration at 24 h,[2]; IT 100 μM,13.9 ng/g
same,concentration at 24 h,[2]; IT 200 μM,13.4 ng/g
same,distribution after IT administration,[2]; IT,distributes locally to the cochlea; also recorded: distributed to cochlea in a dose-dependent manner
same,peak mean cochlear LPT99 concentration,[2]; IT 50 μM,328.5 ng/g cochlea
same,peak mean cochlear LPT99 concentration,[2]; IT 100 μM,491.3 ng/g cochlea
same,peak mean cochlear LPT99 concentration,[2]; IT 200 μM,611.1 ng/g cochlea
same,LPT99 in plasma after IT administration,[3],no LPT99 has been found in plasma; also recorded: not detected systemically
same,LPT99 in plasma after IT administration,[3]; listed as LTP99,not detectable in plasma
same,cell viability with CisPt,HEI-OC1 cells [4],improved cell viability; also recorded: increased cellular viability
same,structural aberrations in cultured mammalian cells,[5],did not induce structural aberrations
same,LPT99 release from hydrogel over time,[6],released in effective amounts for at least one week
same,torsadogenic / cardiotoxic risk,[7],low torsadogenic risk; also recorded: low cardiotoxic risk
same,detection of LPT99 in administered cochleae,"[8]; single IT 50, 100, or 200 μM in 5% hydroxypropyl cyclodextrin, 0.5 and 1 hour",detected in all administered cochleae
same,LPT99 concentrations in contralateral cochleae and plasma,"[8]; single IT, all time points",BLLQ
same,release of Cytc from mitochondria,HEI-OC1 cells [9],decreased release of Cytc from mitochondria
same,plasma LPT99 concentration if IT dose were 100% bioavailable,[10],0.066 µM
same,plasma concentration at quantitation limit (3.2 nM) as share of administered dose,[11]; 50 μM dose,0.006%
same,plasma concentration at quantitation limit (3.2 nM) as share of administered dose,[11]; 100 μM dose,0.003%
same,plasma concentration at quantitation limit (3.2 nM) as share of administered dose,[11]; 200 μM dose,0.0016%
